According to article doi:10.1101/277434v2 (biorxiv, 2024):

Target: IRAK4 (Homo sapiens, UniProt Q9NWZ3)
Test: biochemical

Chain of IRAK4 (Q9NWZ3 whole entry): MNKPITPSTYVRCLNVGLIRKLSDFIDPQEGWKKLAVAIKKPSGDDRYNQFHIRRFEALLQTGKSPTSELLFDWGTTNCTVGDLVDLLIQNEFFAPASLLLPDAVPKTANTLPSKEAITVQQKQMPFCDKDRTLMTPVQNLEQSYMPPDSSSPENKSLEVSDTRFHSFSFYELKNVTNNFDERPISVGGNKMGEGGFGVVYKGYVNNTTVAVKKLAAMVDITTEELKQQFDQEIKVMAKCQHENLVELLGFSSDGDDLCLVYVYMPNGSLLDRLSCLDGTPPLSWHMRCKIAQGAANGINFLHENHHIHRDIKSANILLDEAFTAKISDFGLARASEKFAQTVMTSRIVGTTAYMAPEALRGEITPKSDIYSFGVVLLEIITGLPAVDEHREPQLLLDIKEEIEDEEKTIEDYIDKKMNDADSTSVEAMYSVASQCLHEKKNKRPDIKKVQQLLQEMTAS

- IC50: 3.4 µM
Compound: CN(C)C [TMA]
